The values that follow are results of earlier work, collected in patent US20120087963A1, “DISINFECTANT COMPOSITION COMPRISING A BIGUANIDE COMPOUND” (BIO TECHNICS LIMITED, priority 2009, published 2012).

The subject of this data set is bacteria. Conditions: typical, of the order of.

With polyaminopropyl biguanide [PAPB], the Bactericidal concentration was approximately 10 mg/L.
